# Results taken from publication PMC10488051, “Screening, Synthesis and Biochemical Characterization of SARS-CoV-2 Protease Inhibitors” (International Journal of Molecular Sciences, 2023).
# Target: mutant PL^proC111S (Severe acute respiratory syndrome coronavirus 2, UniProt P0DTD1, C1674S)
# Assay type: binding, SARS-CoV-2
smiles,measurement,value
Nc1ccccc1SSc1ccccc1N [Compound 32],Thermal effect (Tm) on mutant PL^proC111S,but not the mutant PL^proC111S
